# Source: patent US20210275657A1, “NEOANTIGENS AND USES THEREOF” (BioNTech US Inc., priority 2018, published 2021)
# Where no end group is shown, it is not given here.
# Experiments:
# [1] = target: T1, HLA-B07:02 (Homo sapiens, UniProt P01889); experiment: Affinity measurements, competition with radiolabeled peptide (Example 20); type: binding
# [2] = target: T2, HLA-B08:01 (Homo sapiens, UniProt P01889, A93T/A95T/D138N/E176V/E187T/K202T/Q94N/R180D/S35A/V36M/Y33D/Y91F); experiment: Stability measurements, pMHC-I dissociation with 125I light chain (Example 20); type: binding; conditions: for Average half-life: average of experiments 1 and 2
# Procedure: (§1) To measure the binding stability of peptides to Class I MHC, synthetic genes encoding biotinylated MHC-I heavy and light chains are expressed in E. coli and purified from inclusion bodies using standard methods. […] These reactions were carried out in streptavidin coated microplates to bind the biotinylated MHC-I heavy chains to the surface and allow measurement of radiolabeled light chain to monitor complex formation. Dissociation was initiated by addition of higher concentrations of unlabeled light-chain and incubation at 37° C. Stability was defined as the length of time in hours it takes for half of the complexes to dissociate, as measured by scintillation counts. Duplicate measurements were performed. The average of the two measurements was taken as the stability.
# [3] = target: T1, HLA-B07:02; experiment: as above; type: binding
# Procedure: as §1
# [4] = target: indicated HLA alleles (Homo sapiens, UniProt P01889); experiment: Affinity of GATA3 neoORF neoepitopes for the indicated HLA alleles (Example 9, Table 4); type: binding
# Procedure: (§2) Multiple peptides containing the neoepitopes in Table 4 below were expressed or loaded onto antigen presenting cells (APCs). Mass spectrometry was then performed and the affinity of the neoepitopes for the indicated HLA alleles and stability of the neoepitopes with the HLA alleles was determined.
# [5] = tested on: indicated HLA alleles; experiment: Stability of GATA3 neoORF neoepitopes with the HLA alleles (Example 9, Table 4); type: binding, human
# Procedure: as §2
# [6] = target: indicated HLA alleles; experiment: Affinity of GATA3 neoORF neoepitopes for the indicated HLA alleles (Example 9, Table 4); type: binding, human; conditions: Allele A02.01; read-out: Observed MHC affinity
# Procedure: as §2
# [7] = target: T3, HLA-A02:01 (Homo sapiens, UniProt P04439, D140Y/D185E/D98H/E176V/E277Q/G131W/G231S/I119V/I121R/I166T/I218V/L300P/L318F/N151K/N90K/P208A/P217A/Q86G/Q94H/R138H/R169H/T345S); experiment: Detection of GATA3 neoORF peptides by mass spectrometry (Example 8); type: cell-based; conditions: 293T cells transduced with GATA3 neoORF lentiviral vector, expressing HLA-A02:01; peptides eluted from HLA-peptide complexes, MS/MS
# [8] = tested on: antigen specific CD8+ T cells; experiment: Antigen specific CD8+ T cell induction monitored with pMHC multimers (Example 10); type: cell-based, human
# Procedure: PBMC samples from a human donor were used to perform antigen specific T cell induction. CD8^+ T cell inductions were analyzed after manufacturing T cells. Cell samples can be taken out at different time points for analysis. pMIHC multimers were used to monitor the fraction of antigen specific CD8^+ T cells in the induction cultures. […] FIG. 9A depicts an exemplary result of a T cell response assay using PBMCs from 6 different healthy donors showing the fraction of antigen specific CD8^+ T cells that responded to […] peptide analyzed by flow cytometry after stimulation or induction. […] FIG. 9B depicts an exemplary result of a T cell response assay using PBMCs from a healthy donor showing fraction of antigen specific CD8^+ T cells that responded to […] peptide analyzed by flow cytometry after stimulation or induction.
# [9] = tested on: indicated HLA alleles; experiment: Stability of mutant EGFR neopeptides with the HLA alleles; type: binding, human; conditions: EGFR_T790M; HLA A02.01
# Procedure: (§3) Multiple peptides containing neoepitopes in the table below were either expressed or loaded onto antigen presenting cells. Mass spectrometry was then performed and the affinity of the neoepitopes for indicated HLA alleles were determined, and the stability of the neoepitopes with the HLA alleles were determined.
# [10] = target: indicated HLA alleles; experiment: Affinity of mutant EGFR neopeptides for indicated HLA alleles; type: binding, human; conditions: EGFR_T790M; HLA A02.01
# [11] = tested on: indicated HLA alleles; experiment: Stability of mutant BTK neopeptides with the HLA alleles; type: binding, human
# Procedure: as §3
# [12] = target: indicated HLA alleles; experiment: Affinity of mutant BTK neopeptides for indicated HLA alleles; type: binding, human
# Procedure: as §3
# [13] = target: T3, HLA-A02:01; experiment: Stability measurements, pMHC-I dissociation with 125I light chain (Example 20); type: binding
# Procedure: as §1
# [14] = tested on: CD8+ T cells; experiment: Immunogenicity on MHC I: FLT3L/mDC long term stimulation of healthy donor PBMCs, multimer readout (Example 23); conditions: A02:01
# [15] = target: T2, HLA-B08:01; experiment: biochemical
compound,measurement,setting,value
CSCC[C@H](N)C(=O)N[C@@H](Cc1ccccc1)C(=O)N[C@@H](C)C(=O)N[C@H](C(=O)N[C@@H](CC(C)C)C(=O)N[C@@H](CCC(N)=O)C(=O)N[C@@H](CCCNC(=N)N)C(=O)N[C@@H](CO)C(=O)N[C@@H](CO)C(=O)N[C@@H](CC(C)C)C(=O)O)[C@@H](C)O,IC50,[1],350 nM
same,Experiment 2 half-life,[2],0.0 h
same,Average half-life,[2],0.0 h
same,Experiment 2 half-life,[3],0.0 h
same,Average half-life,[3]; average of experiments 1 and 2,0.0 h
same,Kd,[4],267 nM
same,Observed MHC stability,[5]; Allele B07:02,0 h
same,Observed MHC stability,[5]; Allele B08:01,0 h
CC(C)C[C@H](NC(=O)[C@@H]1CCCN1C(=O)[C@H](CCC(N)=O)NC(=O)[C@H](CC(C)C)NC(=O)[C@H](C)NC(=O)[C@H](CC(C)C)NC(=O)[C@H](Cc1c[nH]cn1)NC(=O)[C@@H]1CCCN1C(=O)[C@@H](N)CCC(=O)O)C(=O)O,Kd,[4],17 nM
same,Observed MHC stability,[5]; Allele B07:02,7.2 h
same,Observed MHC stability,[5]; Allele B08:01,0 h
ALQPLQPHA,Kd,[6],604 nM
same,Observed MHC stability,[5]; Allele A02.01,1.5 h
VLPEPHLAL [VLPEPHLAL],detected by mass spectrometry,[7],detected
same,Kd,[6],16 nM
same,healthy donors showing an increase in the fraction of antigen specific CD8+ T cells,[8]; PBMCs from 3 different healthy donors,one of the three donors
same,Observed MHC stability,[5]; Allele A02.01,1.1 h
LIMQLMPFG,Stability (1/2 hr),[9],0 h
same,Kd,[10],3340 nM
QPVLWTTPPL,Kd,[4],109 nM
same,Observed MHC stability,[5]; Allele B07:02,1.4 h
YMANGSLLN,Stability (1/2 hr),"[11]; BTK_C481S, HLA A02.01",0 h
same,Kd,"[12]; BTK_C481S, HLA A02.01",4000 nM
CSCC[C@H](NC(=O)[C@@H](N)CO)C(=O)N[C@@H](CC(C)C)C(=O)N[C@H](C(=O)NCC(=O)N1CCC[C@H]1C(=O)N1CCC[C@H]1C(=O)N[C@@H](C)C(=O)N[C@@H](CCCNC(=N)N)C(=O)N[C@H](C(=O)O)C(C)C)[C@@H](C)O,detected by mass spectrometry,[7],detected
same,Experiment 1 half-life,[13],21.7 h
same,Experiment 2 half-life,[13],21.8 h
same,Average half-life,[13]; average of experiments 1 and 2,21.7 h
same,Percent positive inductions,[14]; naive CD8+ induction confirmed over two stimulations,20%
same,Number of wells with a reactive TCR,"[14]; of 5 wells tested, healthy donor PBMCs",1
same,Kd,[6],14 nM
same,fraction of antigen specific CD8+ T cells that responded to peptide,"[8]; healthy donor PBMCs, flow cytometry after stimulation or induction",increase in the fraction of antigen specific T cells
same,Observed MHC stability,[5]; Allele A02.01,21.7 h
CC[C@H](C)[C@H](N)C(=O)N[C@@H](CCSC)C(=O)N[C@@H](CCCCN)C(=O)N1CCC[C@H]1C(=O)N[C@@H](CCCCN)C(=O)N[C@@H](CCCNC(=N)N)C(=O)N[C@@H](CC(=O)O)C(=O)NCC(=O)N[C@@H](Cc1ccc(O)cc1)C(=O)N[C@@H](CCSC)C(=O)O,Experiment 1 half-life,[2],0.4 h
same,Experiment 2 half-life,[2],0.4 h
same,Average half-life,[2],0.4 h
same,IC50,[15],40.2 nM
same,Observed MHC stability,[5]; Allele B08:01,0.4 h
EYMANGSLL,Stability (1/2 hr),"[11]; BTK, C481S, HLA A24.02",5.716 h
same,Kd,"[12]; BTK, C481S, HLA A24.02",4.96 nM
CC[C@H](C)[C@H](NC(=O)[C@H](CCCCN)NC(=O)[C@H](CO)NC(=O)[C@H](CCC(=O)O)NC(=O)[C@H](C)NC(=O)[C@H](CCCCN)NC(=O)[C@H](CC(C)C)NC(=O)[C@@H](N)Cc1ccccc1)C(=O)N[C@@H](CCSC)C(=O)N[C@@H](Cc1ccccc1)C(=O)O,Experiment 2 half-life,[2],0.0 h
same,Average half-life,[2],0.0 h
same,IC50,[15],90 nM
same,Observed MHC stability,[5]; Allele B08:01,0 h
